Experimental data as given in ChEMBL document CHEMBL6115007, “Synthesis and in vitro and in vivo evaluation of novel bivalent quinolines as antitumor agents via targeting autophagy in cervical cancer” (Eur J Med Chem, 2025).
Activity calls are given as the source filed them. The calls are words filed in the database; no cut-off is given here.

Columns and labels:
Assay type in all cases: functional, cell-based
HCT-116 = assay: Antiproliferative activity against human HCT-116 cells assessed as reduction in cell optical density incubated for 48 hrs by MTT assay; conditions: HCT-116, 48 h
A549 = assay: Antiproliferative activity against human A549 cells assessed as reduction in cell optical density incubated for 48 hrs by MTT assay; conditions: A549, 48 h
HepG2 = assay: Antiproliferative activity against human HepG2 cells assessed as reduction in cell optical density incubated for 48 hrs by MTT assay; conditions: HepG2, 48 h
BGC-823 = assay: Antiproliferative activity against human BGC-823 cells assessed as reduction in cell optical density incubated for 48 hrs by MTT assay; conditions: BGC-823, 48 h
HeLa [1] = assay: Antiproliferative activity against human HeLa cells assessed as reduction in cell optical density incubated for 48 hrs by MTT assay
MCF7 = assay: Antiproliferative activity against human MCF7 cells assessed as reduction in cell optical density incubated for 48 hrs by MTT assay; conditions: MCF7, 48 h
HeLa [2] = assay: Induction of autophagy in human HeLa cells transfected with mRFP-GFP-LC3 plasmid assessed as stable RFP fluorescence at 30 uM incubated for 24 hrs by DAPI staining based fluorescence confocal microscopic analysis
HeLa [3] = assay: Induction of ferroptosis in human HeLa cells assessed as increase in lipid ROS level by measuring rightward shift in fluorescence intensity at 8 uM measured after 12 hrs by C11-BODIPY-581/591 staining based flow cytometric analysis
Ca-Ski = assay: Induction of ferroptosis in human Ca Ski cells assessed as increase in lipid ROS level by measuring rightward shift in fluorescence intensity at 6 uM measured after 12 hrs by C11-BODIPY-581/591 staining based flow cytometric analysis

How did the IC50 (HCT-116) turn out when `Fc1cccc(Nc2ccnc3cc(OCCCCCOc4ccc5c(Nc6cccc(F)c6)ccnc5c4)ccc23)c1` was run?
The IC50 was 3.28 µM.

What about the IC50 (A549) of the same compound?
Its IC50 is 2.55 µM.

What about the IC50 (HepG2) of the same compound?
The IC50 was 45.4 µM.

What about the IC50 (BGC-823) of the same compound?
The IC50 was 2.44 µM.

And the IC50 (HeLa [1])?
The IC50 was 4.34 µM.

And the IC50 (MCF7)?
Its IC50 is 4.98 µM.

With `CN1CCN(c2ccnc3cc(OCCCCOc4ccc5c(N6CCN(C)CC6)ccnc5c4)ccc23)CC1` as the compound, how does the IC50 (HCT-116) read?
The IC50 was > 200 µM.

And the IC50 (A549)?
The IC50 was 139 µM.

And the IC50 (HepG2)?
The IC50 was > 200 µM.

What about the IC50 (BGC-823) of the same compound?
The IC50 was 136 µM.

What about the IC50 (HeLa [1]) of the same compound?
Its IC50 is 146 µM.

And the IC50 (MCF7)?
Its IC50 is > 200 µM.

`CO[C@H]1C[C@@H]2CC[C@@H](C)[C@@](O)(O2)C(=O)C(=O)N2CCCC[C@H]2C(=O)O[C@H]([C@H](C)C[C@@H]2CC[C@@H](O)[C@H](OC)C2)CC(=O)[C@H](C)/C=C(\C)[C@@H](O)[C@@H](OC)C(=O)[C@H](C)C[C@H](C)/C=C/C=C/C=C/1C` was tested. Which Activity (HeLa [2]) did it give?
Its Activity is “Active”.

How did the IC50 (HCT-116) turn out when `FC(F)(F)Oc1cccc(Nc2ccnc3cc(OCCCCOc4ccc5c(Nc6cccc(OC(F)(F)F)c6)ccnc5c4)ccc23)c1` was run?
The IC50 was 13.5 µM.

And the IC50 (A549)?
Its IC50 is 2.75 µM.

And the IC50 (HepG2)?
The IC50 was 2.75 µM.

What about the IC50 (BGC-823) of the same compound?
The IC50 was 66 µM.

And the IC50 (HeLa [1])?
Its IC50 is 14.1 µM.

What about the IC50 (MCF7) of the same compound?
The IC50 was > 200 µM.

With `Fc1cccc(Nc2ccnc3cc(OCCCCOc4ccc5c(Nc6cccc(F)c6)ccnc5c4)ccc23)c1` as the compound, how does the IC50 (HCT-116) read?
The IC50 was 17.1 µM.

What about the IC50 (A549) of the same compound?
Its IC50 is 13.3 µM.

And the IC50 (HepG2)?
Its IC50 is 10.5 µM.

What about the IC50 (BGC-823) of the same compound?
The IC50 was 18.7 µM.

What about the IC50 (HeLa [1]) of the same compound?
Its IC50 is 37.3 µM.

And the IC50 (MCF7)?
Its IC50 is 6.79 µM.

How did the IC50 (HCT-116) turn out when `Fc1cccc(Nc2ccnc3cc(OCCCCCCOc4ccc5c(Nc6cccc(F)c6)ccnc5c4)ccc23)c1` was run?
Its IC50 is 6.64 µM.

What about the IC50 (A549) of the same compound?
The IC50 was 0.75 µM.

What about the IC50 (HepG2) of the same compound?
Its IC50 is 0.36 µM.

And the IC50 (BGC-823)?
Its IC50 is 9.82 µM.

What about the IC50 (HeLa [1]) of the same compound?
The IC50 was 0.94 µM.

What about the IC50 (MCF7) of the same compound?
The IC50 was > 200 µM.

What does the source list for `FC(F)(F)Oc1cccc(Nc2ccnc3cc(OCCCCCOc4ccc5c(Nc6cccc(OC(F)(F)F)c6)ccnc5c4)ccc23)c1`?
IC50 (HCT-116): 17.2 µM; IC50 (A549): 0.78 µM; IC50 (HepG2): 24.8 µM; IC50 (BGC-823): 3.35 µM; IC50 (HeLa [1]): 14.3 µM; IC50 (MCF7): 38 µM

Which results are given for `CN1CCN(c2ccnc3cc(OCCCCCOc4ccc5c(N6CCN(C)CC6)ccnc5c4)ccc23)CC1`?
IC50 (HCT-116): 3.85 µM; IC50 (A549): 26 µM; IC50 (HepG2): 35.1 µM; IC50 (BGC-823): 3.55 µM; IC50 (HeLa [1]): 30.9 µM; IC50 (MCF7): 6.03 µM

How did the IC50 (HCT-116) turn out when `COc1cccc(Nc2ccnc3cc(OCCCCOc4ccc5c(Nc6cccc(OC)c6)ccnc5c4)ccc23)c1` was run?
Its IC50 is > 200 µM.

And the IC50 (A549)?
The IC50 was 142 µM.

And the IC50 (HepG2)?
The IC50 was > 200 µM.

And the IC50 (BGC-823)?
Its IC50 is 63.8 µM.

What about the IC50 (HeLa [1]) of the same compound?
The IC50 was 48.3 µM.

And the IC50 (MCF7)?
The IC50 was 47.2 µM.

What does the source list for `CN1CCN(c2ccnc3cc(OCCCCCCOc4ccc5c(N6CCN(C)CC6)ccnc5c4)ccc23)CC1`?
IC50 (HCT-116): 42.3 µM; IC50 (A549): 0.33 µM; IC50 (HepG2): 43.3 µM; IC50 (BGC-823): 50.2 µM; IC50 (HeLa [1]): 26.1 µM; IC50 (MCF7): 44.3 µM

`FC(F)(F)Oc1cccc(Nc2ccnc3cc(OCCCCCCOc4ccc5c(Nc6cccc(OC(F)(F)F)c6)ccnc5c4)ccc23)c1` was tested. Which IC50 (HCT-116) did it give?
The IC50 was 10.3 µM.

What about the IC50 (A549) of the same compound?
The IC50 was 0.31 µM.

And the IC50 (HepG2)?
The IC50 was 44.8 µM.

And the IC50 (BGC-823)?
The IC50 was 89.4 µM.

And the IC50 (HeLa [1])?
Its IC50 is 28.3 µM.

And the IC50 (MCF7)?
Its IC50 is > 200 µM.

`COc1cccc(Nc2ccnc3cc(OCCCCCCOc4ccc5c(Nc6cccc(OC)c6)ccnc5c4)ccc23)c1` was tested. Which IC50 (HCT-116) did it give?
The IC50 was 6.99 µM.

And the IC50 (A549)?
Its IC50 is 6.15 µM.

And the IC50 (HepG2)?
Its IC50 is 31.9 µM.

And the IC50 (BGC-823)?
Its IC50 is 3.58 µM.

And the IC50 (HeLa [1])?
The IC50 was 4.07 µM.

What about the IC50 (MCF7) of the same compound?
The IC50 was 5.55 µM.

`COC(=O)c1ccc([C@H]2c3[nH]c4ccccc4c3C[C@H](C(=O)OC)N2C(=O)CCl)cc1` was tested. Which Activity (HeLa [3]) did it give?
Its Activity is “Active”.

What about the Activity (Ca-Ski) of the same compound?
The Activity was “Active”.
